# Laboratory results taken from PubChem BioAssay (NCI).
#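 These data come from cells grown in 96-well plates and exposed to compound for 48 hours at five concentrations. Here, GI50 denotes the concentration required for 50% inhibition of growth. At the TGI there is no net growth.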
# How the values were obtained:
# Assay in all cases: NCI-60 cell line screen, 48 h
# K-562 leukemia = test system: K-562 leukemia
# MDA-MB-435 = test system: MDA-MB-435
# OVCAR-5 ovarian = test system: OVCAR-5 ovarian
# TK-10 renal = test system: TK-10 renal
# CAKI-1 renal = test system: CAKI-1 renal
# A498 renal = test system: A498 renal
# HT29 colon = test system: HT29 colon
# RXF 393 renal = test system: RXF 393 renal
# NCI-H23 lung = test system: NCI-H23 lung
# SNB-75 CNS = test system: SNB-75 CNS
Structure (SMILES),GI50 (K-562 leukemia) [µM],TGI (K-562 leukemia) [µM],GI50 (MDA-MB-435) [µM],TGI (MDA-MB-435) [µM],GI50 (OVCAR-5 ovarian) [µM],TGI (OVCAR-5 ovarian) [µM],GI50 (TK-10 renal) [µM],TGI (TK-10 renal) [µM],GI50 (CAKI-1 renal) [µM],TGI (CAKI-1 renal) [µM],GI50 (A498 renal) [µM],TGI (A498 renal) [µM],GI50 (HT29 colon) [µM],TGI (HT29 colon) [µM],GI50 (RXF 393 renal) [µM],TGI (RXF 393 renal) [µM],GI50 (NCI-H23 lung) [µM],TGI (NCI-H23 lung) [µM],GI50 (SNB-75 CNS) [µM],TGI (SNB-75 CNS) [µM]
CN(C)CCOc1ccccc1NC1=C(Cl)C(=O)C(Nc2ccccc2OCCN(C)C)=C(Cl)C1=O,2.26,5.41,9.42,> 40.6,10.2,> 38.6,5.73,12.4,1.14,2.36,> 38.2,> 53.8,0.83,3.5,3.93,10.4,6.47,22.6,> 39.4,> 82.1
C=CCOC(=O)Nc1cccn([C@H](CC(C)C)C(=O)NCCC(C)C)c1=O,96,> 100,> 100,> 100,> 100,> 100,> 100,> 100,29,> 100,17.2,> 100,> 100,> 100,> 100,> 100,57.2,> 100,4.91,> 100
Cc1ccc(OCCOCCOCCOCCOCCOc2ccc(C)n(O)c2=S)c(=S)n1O,0.0383,> 100,0.186,52.6,0.0634,> 100,0.0826,> 100,0.0453,> 100,0.149,3.88,0.0585,> 100,0.327,17.1,0.08,> 100,0.456,18.1
CN(C)CCS(=O)(=O)Nc1cc(-c2ccc3ncc(C#N)c(Nc4ccc(F)c(Cl)c4)c3c2)cnc1Cl,0.229,> 50.5,0.374,3,0.303,4.9,0.155,0.762,0.0913,0.511,0.144,0.344,0.388,> 25.9,0.0953,0.348,0.159,0.469,< 0.0152,0.562
CCOC(=O)c1cc(NS(=O)(=O)c2ccc(C)cc2)cc(C(=O)OCC)c1,40.2,> 100,33.6,> 100,37.9,> 100,> 100,> 100,43.5,> 100,34.3,> 100,82.7,> 100,> 100,> 100,38.5,> 100,23.1,68.9
CCC1(c2ccc(N)cc2)CCC(=O)NC1=O (stereo not given),–,> 5000,–,> 5000,–,> 5000,–,4890,–,4310,–,> 5000,–,> 3750,–,> 3970,–,> 5000,–,4490
COc1cc(/C=C/C(=O)c2c(-c3ccc(F)cc3)nc3sc(C)nn23)cc(OC)c1OC,2.61,15,3.35,13,3.46,9.92,2.92,8.14,3.27,18.2,2.3,7.23,2.55,5.51,2.11,6.66,2.98,9.55,2.67,14.6
O=[N+]([O-])c1ccc2c(c1)C(c1ccccc1Cl)=Nc1c(n[nH]c1-c1cccnc1)N2,> 25,> 25,> 25,> 25,> 25,> 25,> 25,> 25,> 25,> 25,> 20.3,> 25,> 25,> 25,> 25,> 25,> 25,> 25,> 10.1,> 25
CN(C)C=Nc1c(I)cc(I)c(CCC(=O)O)c1I,59.3,> 100,> 100,> 100,> 100,> 100,> 100,> 100,> 100,> 100,81.6,> 100,> 100,> 100,> 100,> 100,> 100,> 100,> 100,> 100
COC(=O)CNc1nc(N(C)O)nc(N(C)O)n1,2.43,> 100,10.5,> 100,9.24,> 100,1.61,> 100,13.1,> 100,20.3,> 100,6.5,> 100,4.85,> 100,11.5,> 100,4.2,> 100
COC(=O)c1oc2c(C(=O)/C=C/c3ccc(OC)cc3)c(OCCN3CCOCC3)ccc2c1C,1.44,4.82,2.37,7.34,2.38,6.68,3.31,11.9,1.74,4.94,2.04,4.69,1.94,4.48,0.0487,0.493,1.91,5.46,1.83,6.77
CC/C=C\C[C@H](O)C/C=C1/C(=O)C=C[C@@H]1C/C=C\CCCCO,2.91,> 100,3.48,15.8,3.25,8.95,3.31,9.22,3.14,12.8,16.8,32.5,2.4,5.62,2.25,4.18,2.26,5.95,11,38.4
